Measurements taken from patent US12234237B2, “Folate salts” (priority 2018, dated 2025).

Experiment: Solubility of the folate salt in organic (apolar) solvents at 20° C.
Conditions: based on total weight of the solution
Procedure: Solubility has been determined at 20° C. Apolar solvents or mixtures thereof are for instance glycerol, methanol, ethanol, 1-propanol, 2-propanol and dimethylsulfoxid (DMSO). Apolar solvents are understood as dry solvents, that is without any water content. Apolar solvents may be pure solvents, comprising only one type of apolar solvent or it may be a mixture of at least two of the aforementioned apolar solvents. Polarity is in comparison to the polarity of water.
A high degree of crystallinity means that the crystalline content of the folate salt is higher than 40% based on the total amount of the folate salt.

Structure (SMILES)	Solubility in 1-Propanol [% w/w]	Solubility in DMSO [% w/w]	Solubility in Ethanol [% w/w]	Solubility in Glycerol [% w/w]	Solubility in Methanol [% w/w]
CC(C)(N)CO.CC(C)(N)CO.CN1c2c(nc(N)[nH]c2=O)NC[C@@H]1CNc1ccc(C(=O)N[C@@H](CCC(=O)O)C(=O)O)cc1 [L-MTHF di AMP, 5-Methyl-(6S)-tetrahydrofolic acid di 2-Amino-2-methyl propanol salt]	0.1	23.1	0.1	16.7	11.2
CN1c2c(nc(N)[nH]c2=O)NC[C@@H]1CNc1ccc(C(=O)N[C@@H](CCC(=O)O)C(=O)O)cc1.CNCCO.CNCCO [L-MTHF di NMAE, 5-Methyl-(6S)-tetrahydrofolic acid di N-methylaminoethanol salt]	0.1	3.5	0.2	16.7	3.6
CN(C)CCO.CN1c2c(nc(N)[nH]c2=O)NC[C@@H]1CNc1ccc(C(=O)N[C@@H](CCC(=O)O)C(=O)O)cc1 [L-MTHF mono deanol, 5-Methyl-(6S)-tetrahydrofolic Acid Mono 2-Dimethylaminoethanol Salt]	0.2	24.8	0.2	10.0	2.5
